Measured values reported in patent US20230338316A1, “ABBAPOLINS AS INHIBITORS AND DEGRADERS OF POLO-LIKE KINASES” (UNIVERSITY OF SOUTH CAROLINA, priority 2022, published 2023).

Experiments:
[1] = tested on: apoptosis; assay: Cell cycle analysis and caspase apoptosis assay; assay type: cell-based; conditions: versus negative control
Source text: Disclosed small molecule inhibitors can also encourage apoptosis.

[2] = tested on: PC3 prostate cancer xenografts; assay: PC3 prostate cancer xenograft study; assay type: in vivo, athymic nude mice
Experimental: The efficacy of promising abbapolin compounds were tested in multiple cancer cell lines. […] To do so, athymic nude mice were injected in their flanks with 2.7×10^6 PC3 prostate cancer cells. After the tumors established at 13 days, 5-8 mice per group were treated with 6359 and 6369 daily for 5 days (M-F) for a total of 15 days. […] This is in agreement with the PLK1 degradation in the xenograft tumor.

[3] = biological target: PLK1 (Homo sapiens, UniProt P53350); assay: PLK1 degradation in PC3 cells; assay type: cell-based; parameters: endogenous in cells; host or cells: PC3 prostate cancer cells; conditions: PC3 cell line, 24 hours
Sequence of PLK1 (P53350 whole entry): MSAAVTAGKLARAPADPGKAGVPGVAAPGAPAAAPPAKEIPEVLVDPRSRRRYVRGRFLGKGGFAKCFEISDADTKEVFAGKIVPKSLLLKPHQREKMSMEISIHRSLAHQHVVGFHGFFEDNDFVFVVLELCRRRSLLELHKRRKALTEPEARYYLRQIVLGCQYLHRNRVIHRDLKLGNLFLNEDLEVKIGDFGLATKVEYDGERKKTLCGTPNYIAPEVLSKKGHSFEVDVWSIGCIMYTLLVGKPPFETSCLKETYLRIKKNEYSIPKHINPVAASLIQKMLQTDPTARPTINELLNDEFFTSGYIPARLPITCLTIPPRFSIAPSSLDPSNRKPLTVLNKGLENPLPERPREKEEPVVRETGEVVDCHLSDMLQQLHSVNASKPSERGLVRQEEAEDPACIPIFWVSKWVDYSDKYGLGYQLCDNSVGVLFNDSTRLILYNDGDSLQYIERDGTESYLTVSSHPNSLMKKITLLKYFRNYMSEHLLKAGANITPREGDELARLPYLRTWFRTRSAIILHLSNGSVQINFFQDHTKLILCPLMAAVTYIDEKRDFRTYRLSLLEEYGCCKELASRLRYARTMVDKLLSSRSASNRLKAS
Experimental: For example, PC3 cells were treated with varying dosages of abbapolin 6369, and percent of PLK1 degradation was measured at 24 hours (FIGS. 8A-8B). HeLa cells were treated with 25 μM abbapolin 6369, and time points shown in the assay were 24 hours, 48 hours, and 72 hours (FIGS. 9A-9B). PC3 cells were treated with varying dosages of abbapolin 6329, and percent of PLK1 degradation was measured at 24 hours (FIGS. […]). HeLa cells were treated with varying dosages of abbapolin 6329, and time points shown in the assay were 24 hours, 48 hours, and 72 hours (FIGS. 11A-11B).

[4] = biological target: T1, PLK1 PBD (367-603) (Homo sapiens, UniProt P53350); assay: Fluorescence polarization assay, PLK1 PBD; assay type: binding; conditions: Table 10; target not named at the place; read-out: in vitro binding IC50
T1 construct: PLK1 PBD (367-603) and PLK3 PBD (335-646) proteins were obtained from BPS Biosciences Inc; purchased BPS Biosciences Inc. (San Diego, CA)
T1 sequence (P53350 367-603): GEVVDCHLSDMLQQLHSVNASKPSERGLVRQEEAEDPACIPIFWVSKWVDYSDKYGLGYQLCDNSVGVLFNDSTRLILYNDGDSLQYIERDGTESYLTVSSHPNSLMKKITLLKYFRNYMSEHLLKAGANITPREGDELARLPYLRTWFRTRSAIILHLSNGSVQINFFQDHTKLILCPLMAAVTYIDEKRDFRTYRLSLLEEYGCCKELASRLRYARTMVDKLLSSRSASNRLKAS
Experimental: Materials were dissolved in DMSO (10 mM) and diluted from 10 nM to 600 μM (maximum of 6% DMSO tolerance in the assay). PLK1 PBD (367-603) and PLK3 PBD (335-646) proteins were obtained from BPS Biosciences Inc. (San Diego, CA); 17 ng PLK1 and 156 ng PLK3 were used per reaction. The fluorescein-tracer phospho-peptides (MAGPMQS[pT]PLNGAKK (SEQ ID NO: 1) for PLK1, and GPLATS[pT]PKNG (SEQ ID NO: 2) for PLK3) were used at a final concentration of 10 nM. Incubation was carried out at room temperature for 45 minutes. Fluorescence was measured using a DTX 880 plate reader and Multimode Analysis software (Beckman Coulter, Brea, CA). The polarization values in millipolarization (mP) units were measured at an excitation wavelength of 488 nm and an emission wavelength of 535 nm. Each data point was performed in triplicate for every experiment, and experiments were performed at least three times. An IC50 value for each compound was calculated from linear regression analysis of the plots.

[5] = tested on: RPMI-8226; assay: Single dose cell viability assay, RPMI-8226; assay type: cell-based; conditions: RPMI-8226 (Leukemia), single dose 10 μM
Experimental: Lead abbapolin compounds were tested in multiple cancer cell lines, including non-small cell lung cancer (NSCLC) cells, melanoma cells, colon cancer cells, central nervous system (CNS) cancer cells, prostate cancer cells, renal cancer cells, and breast cancer cells. Each of these cancer cells lines were sensitive to the lead abbapolin compounds in a cell viability assay, including 6184 (Table 3), 6277 (Table 4), 6279 (Table 5), 6355 (Table 6), 6359 (Table 7), 6369 (Table 8), and 6421 (Table 9).

Substance: 3-(4-octylbenzamido)phenyl phosphate [compound 6369]
- levels of apoptosis [1]: high levels of apoptosis
- growth of PC3 tumors ([2]; 6359 100 mg/kg oral gavage, 6369 40 mg/kg IP, daily 5 days (M-F), total 15 days): slow the growth of PC3 tumors
- PLK1 loss in the xenograft tumor ([2]; isolated PC3 xenograft tumors): significantly more PLK1 loss compared to PBS and 6359
- PLK1 degradation [3]: degradation of PLK1
- IC50 [4]: 115 µM
- Cells Remaining (%) [5]: 39.13%
